Test results from the kinase profiling compilation of Christmann-Franck et al. (2016).

Key:
Experiment in all cases: radiometric filter-binding kinase assay
[1] = tested on: AKT1 (human), P31749 [S473D]
BRSK2 (human) = BRSK2 (human) (UniProt Q8IWQ3)
CLK2 (human) = CLK2 (human) (UniProt P49760)
CSNK2A1 (human) = CSNK2A1 (human) (UniProt P68400)
DAPK1 (human) = DAPK1 (human) (UniProt P53355)
DYRK1A (human) = DYRK1A (human) (UniProt Q13627)
DYRK3 (human) = DYRK3 (human) (UniProt O43781)
EPHB3 (human) = EPHB3 (human) (UniProt P54753)
IKBKB (human) = IKBKB (human) (UniProt O14920)
IKBKE (human) = IKBKE (human) (UniProt Q14164)
IRAK4 (human) = IRAK4 (human) (UniProt Q9NWZ3)
MAP2K6 (human) = MAP2K6 (human) (UniProt P52564)
MAP3K11 (human) = MAP3K11 (human) (UniProt Q16584)
MAP3K7 TAB1 (human) = MAP3K7 TAB1 (human) (UniProt Q15750+O43318)
MAPK12 (human) = MAPK12 (human) (UniProt P53778)
MAPK14 (human) = MAPK14 (human) (UniProt Q16539)
MAPK3 (human) = MAPK3 (human) (UniProt P27361)
MAPK8 (human) = MAPK8 (human) (UniProt P45983)
MAPKAPK3 (human) = MAPKAPK3 (human) (UniProt Q16644)
MAPKAPK5 (human) = MAPKAPK5 (human) (UniProt Q8IW41)
MKNK2 (human) = MKNK2 (human) (UniProt Q9HBH9)
NTRK1 (human) = NTRK1 (human) (UniProt P04629)
PAK4 (human) = PAK4 (human) (UniProt O96013); settings: compound 10.0 µM
PIM1 (human) = PIM1 (human) (UniProt P11309)
PIM3 (human) = PIM3 (human) (UniProt Q86V86)
PLK1 (human) = PLK1 (human) (UniProt P53350)
ROCK2 (rat) = settings: accession and sequence are those of the human protein
RPS6KA1 KD1 KD2 (human) = RPS6KA1 KD1 KD2 (human) (UniProt Q15418)
RPS6KA3 KD1 KD2 (human) = RPS6KA3 KD1 KD2 (human) (UniProt P51812)
[2] = tested on: RPS6KB1 (human), P23443 [T412E]
[3] = tested on: SGK1 (human), O00141 [S422D]
STK3 (human) = STK3 (human) (UniProt Q13188)
TBK1 (human) = TBK1 (human) (UniProt Q9UHD2)
MAPK11 (human) = MAPK11 (human) (UniProt Q15759); settings: compound 10.0 µM
PIM2 (human) = PIM2 (human) (UniProt Q9P1W9); settings: compound 10.0 µM

RPS6KA1 KD1 KD2 (human), sequence (Q15418 whole entry, looked up): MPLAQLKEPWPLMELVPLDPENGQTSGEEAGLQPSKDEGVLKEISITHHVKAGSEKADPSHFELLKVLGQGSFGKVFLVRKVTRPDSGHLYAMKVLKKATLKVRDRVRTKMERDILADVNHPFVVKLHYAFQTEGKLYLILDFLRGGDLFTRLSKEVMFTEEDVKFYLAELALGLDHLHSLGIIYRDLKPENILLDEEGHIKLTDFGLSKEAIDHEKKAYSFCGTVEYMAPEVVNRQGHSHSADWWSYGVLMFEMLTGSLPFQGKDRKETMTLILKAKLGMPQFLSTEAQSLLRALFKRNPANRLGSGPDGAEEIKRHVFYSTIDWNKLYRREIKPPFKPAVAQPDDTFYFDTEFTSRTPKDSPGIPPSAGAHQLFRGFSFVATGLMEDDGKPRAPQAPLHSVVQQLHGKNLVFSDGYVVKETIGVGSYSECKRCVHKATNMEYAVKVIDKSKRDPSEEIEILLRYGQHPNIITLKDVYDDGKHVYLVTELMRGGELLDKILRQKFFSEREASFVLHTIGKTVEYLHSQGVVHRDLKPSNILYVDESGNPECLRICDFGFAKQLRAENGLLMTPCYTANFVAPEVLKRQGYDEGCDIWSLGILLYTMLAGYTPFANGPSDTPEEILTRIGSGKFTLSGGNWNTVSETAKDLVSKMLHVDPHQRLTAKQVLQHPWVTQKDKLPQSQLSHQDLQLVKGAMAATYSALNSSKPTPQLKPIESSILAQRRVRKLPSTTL
EPHB3 (human), sequence (P54753 whole entry, looked up): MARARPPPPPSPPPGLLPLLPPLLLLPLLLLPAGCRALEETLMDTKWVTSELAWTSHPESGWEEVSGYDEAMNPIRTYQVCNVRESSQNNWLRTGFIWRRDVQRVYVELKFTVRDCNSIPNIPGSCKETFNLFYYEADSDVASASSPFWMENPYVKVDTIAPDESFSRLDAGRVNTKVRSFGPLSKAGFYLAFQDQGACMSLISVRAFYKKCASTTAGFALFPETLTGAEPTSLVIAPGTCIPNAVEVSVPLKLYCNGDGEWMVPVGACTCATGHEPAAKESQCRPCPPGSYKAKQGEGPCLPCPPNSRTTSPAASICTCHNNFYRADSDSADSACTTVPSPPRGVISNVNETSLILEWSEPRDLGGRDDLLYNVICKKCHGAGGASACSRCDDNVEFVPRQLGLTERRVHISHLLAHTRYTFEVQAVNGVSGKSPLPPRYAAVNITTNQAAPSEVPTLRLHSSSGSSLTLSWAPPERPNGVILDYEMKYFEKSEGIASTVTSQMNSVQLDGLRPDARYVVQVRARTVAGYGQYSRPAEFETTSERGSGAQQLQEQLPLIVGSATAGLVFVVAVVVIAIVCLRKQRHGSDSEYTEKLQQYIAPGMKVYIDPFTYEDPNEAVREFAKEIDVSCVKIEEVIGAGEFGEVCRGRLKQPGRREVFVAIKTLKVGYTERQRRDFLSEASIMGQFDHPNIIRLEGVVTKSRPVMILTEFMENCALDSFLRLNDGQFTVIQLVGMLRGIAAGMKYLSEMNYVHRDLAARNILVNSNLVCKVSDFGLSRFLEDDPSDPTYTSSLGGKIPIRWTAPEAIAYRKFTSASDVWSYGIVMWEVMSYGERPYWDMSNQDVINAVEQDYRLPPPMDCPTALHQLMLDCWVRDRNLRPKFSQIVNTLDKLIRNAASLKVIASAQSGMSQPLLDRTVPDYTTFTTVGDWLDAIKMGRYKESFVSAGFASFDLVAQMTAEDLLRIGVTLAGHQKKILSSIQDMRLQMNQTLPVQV
PIM1 (human), sequence (P11309 whole entry, looked up): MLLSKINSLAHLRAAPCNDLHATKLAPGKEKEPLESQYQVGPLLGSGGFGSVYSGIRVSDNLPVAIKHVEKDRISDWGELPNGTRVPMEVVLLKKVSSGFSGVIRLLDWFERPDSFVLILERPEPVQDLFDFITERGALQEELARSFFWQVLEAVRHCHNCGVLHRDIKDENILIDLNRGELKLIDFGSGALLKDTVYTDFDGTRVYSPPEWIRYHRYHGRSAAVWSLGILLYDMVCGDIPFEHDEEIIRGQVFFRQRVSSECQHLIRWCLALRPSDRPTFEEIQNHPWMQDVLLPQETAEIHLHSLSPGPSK
DYRK3 (human), sequence (O43781 whole entry, looked up): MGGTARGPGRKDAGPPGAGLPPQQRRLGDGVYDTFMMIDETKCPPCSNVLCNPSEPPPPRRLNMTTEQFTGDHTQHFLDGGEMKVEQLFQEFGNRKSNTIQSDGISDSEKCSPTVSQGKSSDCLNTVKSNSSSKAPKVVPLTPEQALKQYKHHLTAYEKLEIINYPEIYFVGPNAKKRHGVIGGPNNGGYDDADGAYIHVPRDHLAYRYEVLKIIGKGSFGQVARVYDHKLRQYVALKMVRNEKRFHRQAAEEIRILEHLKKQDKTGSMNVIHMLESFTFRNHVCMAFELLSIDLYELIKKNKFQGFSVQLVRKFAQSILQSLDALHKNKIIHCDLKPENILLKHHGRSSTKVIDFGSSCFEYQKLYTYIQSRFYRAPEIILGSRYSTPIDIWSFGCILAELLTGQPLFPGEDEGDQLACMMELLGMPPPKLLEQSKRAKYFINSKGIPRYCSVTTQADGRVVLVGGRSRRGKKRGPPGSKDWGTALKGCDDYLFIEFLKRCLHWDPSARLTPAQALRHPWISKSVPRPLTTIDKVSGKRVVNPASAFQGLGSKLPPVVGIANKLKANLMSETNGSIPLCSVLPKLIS
BRSK2 (human), sequence (Q8IWQ3 whole entry, looked up): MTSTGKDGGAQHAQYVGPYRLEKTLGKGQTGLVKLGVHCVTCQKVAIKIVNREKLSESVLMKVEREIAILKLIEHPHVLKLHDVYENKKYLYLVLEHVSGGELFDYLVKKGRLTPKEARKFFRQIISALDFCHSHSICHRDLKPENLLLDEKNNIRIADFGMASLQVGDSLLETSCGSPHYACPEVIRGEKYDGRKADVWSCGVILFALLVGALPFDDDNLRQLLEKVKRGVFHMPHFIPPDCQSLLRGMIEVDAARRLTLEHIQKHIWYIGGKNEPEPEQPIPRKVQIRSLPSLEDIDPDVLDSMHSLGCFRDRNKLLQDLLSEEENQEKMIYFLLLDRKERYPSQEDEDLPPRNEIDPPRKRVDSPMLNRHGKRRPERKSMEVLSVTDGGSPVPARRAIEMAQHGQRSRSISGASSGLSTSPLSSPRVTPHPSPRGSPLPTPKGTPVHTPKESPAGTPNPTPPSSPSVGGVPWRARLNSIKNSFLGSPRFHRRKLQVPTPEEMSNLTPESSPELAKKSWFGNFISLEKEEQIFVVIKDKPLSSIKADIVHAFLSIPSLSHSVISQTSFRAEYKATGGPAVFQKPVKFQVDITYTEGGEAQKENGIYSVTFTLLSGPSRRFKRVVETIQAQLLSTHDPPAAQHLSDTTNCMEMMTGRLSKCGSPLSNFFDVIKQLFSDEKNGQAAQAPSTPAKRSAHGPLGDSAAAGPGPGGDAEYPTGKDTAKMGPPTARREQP
MAPK12 (human), sequence (P53778 whole entry, looked up): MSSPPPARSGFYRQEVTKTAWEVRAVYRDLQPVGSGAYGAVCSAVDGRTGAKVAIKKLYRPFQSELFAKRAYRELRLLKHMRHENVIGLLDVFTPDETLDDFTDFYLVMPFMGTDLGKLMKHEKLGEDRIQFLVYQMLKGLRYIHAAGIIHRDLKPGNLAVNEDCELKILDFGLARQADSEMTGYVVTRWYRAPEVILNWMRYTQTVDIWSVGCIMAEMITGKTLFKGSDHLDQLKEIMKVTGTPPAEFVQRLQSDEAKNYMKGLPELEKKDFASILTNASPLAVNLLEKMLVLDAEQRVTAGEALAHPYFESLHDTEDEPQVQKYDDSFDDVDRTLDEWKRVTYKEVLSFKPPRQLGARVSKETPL
MAP3K7 TAB1 (human), sequence (O43318 whole entry, looked up): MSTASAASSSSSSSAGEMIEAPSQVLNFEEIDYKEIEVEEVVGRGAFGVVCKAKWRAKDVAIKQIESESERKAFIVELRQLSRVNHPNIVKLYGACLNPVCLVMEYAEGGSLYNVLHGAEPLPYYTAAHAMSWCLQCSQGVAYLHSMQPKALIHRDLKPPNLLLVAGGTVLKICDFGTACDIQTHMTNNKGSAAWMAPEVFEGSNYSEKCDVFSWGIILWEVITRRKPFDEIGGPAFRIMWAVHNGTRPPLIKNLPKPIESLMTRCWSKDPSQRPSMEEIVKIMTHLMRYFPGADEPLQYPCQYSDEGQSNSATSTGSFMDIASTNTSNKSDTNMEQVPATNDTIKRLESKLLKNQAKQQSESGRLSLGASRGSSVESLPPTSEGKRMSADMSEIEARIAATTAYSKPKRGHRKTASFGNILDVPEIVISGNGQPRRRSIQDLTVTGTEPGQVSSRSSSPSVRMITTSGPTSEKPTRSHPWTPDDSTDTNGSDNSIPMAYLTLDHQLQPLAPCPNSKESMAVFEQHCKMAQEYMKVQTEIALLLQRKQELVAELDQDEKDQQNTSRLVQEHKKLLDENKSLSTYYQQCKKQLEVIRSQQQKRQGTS
MAP3K7 TAB1 (human), sequence (Q15750 whole entry, looked up): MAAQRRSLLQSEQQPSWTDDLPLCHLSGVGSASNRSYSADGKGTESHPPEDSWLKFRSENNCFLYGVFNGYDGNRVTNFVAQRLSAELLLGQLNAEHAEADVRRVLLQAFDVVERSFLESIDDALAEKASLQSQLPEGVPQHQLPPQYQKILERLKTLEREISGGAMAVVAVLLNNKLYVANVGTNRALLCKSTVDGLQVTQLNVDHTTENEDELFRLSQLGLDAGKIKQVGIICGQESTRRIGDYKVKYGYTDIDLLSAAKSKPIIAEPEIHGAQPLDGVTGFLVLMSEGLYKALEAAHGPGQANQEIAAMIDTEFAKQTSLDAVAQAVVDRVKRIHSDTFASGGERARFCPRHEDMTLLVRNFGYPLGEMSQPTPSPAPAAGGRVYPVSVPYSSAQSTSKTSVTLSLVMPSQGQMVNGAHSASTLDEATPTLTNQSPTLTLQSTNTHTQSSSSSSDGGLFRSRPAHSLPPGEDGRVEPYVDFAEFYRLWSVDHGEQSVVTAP

Molecule `O=C(NOC[C@H](O)CO)c1ccc(F)c(F)c1Nc1ccc(I)cc1Cl` has a residual activity ([1]; compound 1.0 µM) of 107%, a residual activity ([1]; compound 10.0 µM) of 104% and a residual activity (BRSK2 (human); compound 1.0 µM) of 94%. It also gave a residual activity (BRSK2 (human); compound 10.0 µM) of 96%, a residual activity (CLK2 (human); compound 1.0 µM) of 103% and a residual activity (CLK2 (human); compound 10.0 µM) of 85%. For the same molecule, the residual activity (CSNK2A1 (human); compound 1.0 µM) was 107%, the residual activity (CSNK2A1 (human); compound 10.0 µM) was 118% and the residual activity (DAPK1 (human); compound 1.0 µM) was 96%. For the same molecule, the residual activity (DAPK1 (human); compound 10.0 µM) was 90%, the residual activity (DYRK1A (human); compound 1.0 µM) was 94% and the residual activity (DYRK1A (human); compound 10.0 µM) was 104%. For the same molecule, the residual activity (DYRK3 (human); compound 1.0 µM) was 85%, the residual activity (DYRK3 (human); compound 10.0 µM) was 85% and the residual activity (EPHB3 (human); compound 1.0 µM) was 101%. The residual activity (EPHB3 (human); compound 10.0 µM) was 113%, the residual activity (IKBKB (human); compound 1.0 µM) was 88% and the residual activity (IKBKB (human); compound 10.0 µM) was 103%. The residual activity (IKBKE (human); compound 1.0 µM) was 103%, the residual activity (IKBKE (human); compound 10.0 µM) was 111% and the residual activity (IRAK4 (human); compound 1.0 µM) was 81%. For the same molecule, the residual activity (IRAK4 (human); compound 10.0 µM) was 100%, the residual activity (MAP2K6 (human); compound 1.0 µM) was 93% and the residual activity (MAP2K6 (human); compound 10.0 µM) was 102%. It also gave a residual activity (MAP3K11 (human); compound 1.0 µM) of 83%, a residual activity (MAP3K11 (human); compound 10.0 µM) of 92% and a residual activity (MAP3K7 TAB1 (human); compound 1.0 µM) of 77%. The residual activity (MAP3K7 TAB1 (human); compound 10.0 µM) was 82%, the residual activity (MAPK12 (human); compound 1.0 µM) was 91% and the residual activity (MAPK12 (human); compound 10.0 µM) was 98%. It also gave a residual activity (MAPK14 (human); compound 1.0 µM) of 96%, a residual activity (MAPK14 (human); compound 10.0 µM) of 97% and a residual activity (MAPK3 (human); compound 1.0 µM) of 88%. The residual activity (MAPK3 (human); compound 10.0 µM) was 106%, the residual activity (MAPK8 (human); compound 1.0 µM) was 91% and the residual activity (MAPK8 (human); compound 10.0 µM) was 117%. For the same molecule, the residual activity (MAPKAPK3 (human); compound 1.0 µM) was 90%, the residual activity (MAPKAPK3 (human); compound 10.0 µM) was 89% and the residual activity (MAPKAPK5 (human); compound 1.0 µM) was 98%. It also gave a residual activity (MAPKAPK5 (human); compound 10.0 µM) of 99%, a residual activity (MKNK2 (human); compound 1.0 µM) of 93% and a residual activity (MKNK2 (human); compound 10.0 µM) of 110%. It also gave a residual activity (NTRK1 (human); compound 1.0 µM) of 72%, a residual activity (NTRK1 (human); compound 10.0 µM) of 75% and a residual activity (PAK4 (human)) of 65%. For the same molecule, the residual activity (PIM1 (human); compound 1.0 µM) was 92%, the residual activity (PIM1 (human); compound 10.0 µM) was 73% and the residual activity (PIM3 (human); compound 1.0 µM) was 78%. For the same molecule, the residual activity (PIM3 (human); compound 10.0 µM) was 72%, the residual activity (PLK1 (human); compound 1.0 µM) was 81% and the residual activity (PLK1 (human); compound 10.0 µM) was 92%. It also gave a residual activity (ROCK2 (rat); compound 1.0 µM) of 84%, a residual activity (RPS6KA1 KD1 KD2 (human); compound 1.0 µM) of 102% and a residual activity (RPS6KA1 KD1 KD2 (human); compound 10.0 µM) of 102%. It also gave a residual activity (RPS6KA3 KD1 KD2 (human); compound 1.0 µM) of 104%, a residual activity (RPS6KA3 KD1 KD2 (human); compound 10.0 µM) of 92% and a residual activity ([2]; compound 1.0 µM) of 97%. It also gave a residual activity ([2]; compound 10.0 µM) of 81%, a residual activity ([3]; compound 1.0 µM) of 69% and a residual activity ([3]; compound 10.0 µM) of 74%. For the same molecule, the residual activity (STK3 (human); compound 1.0 µM) was 83%, the residual activity (STK3 (human); compound 10.0 µM) was 70% and the residual activity (TBK1 (human); compound 1.0 µM) was 117%. The residual activity (TBK1 (human); compound 10.0 µM) was 101%.

Work on `O=S(=O)(c1ccc(F)c2nonc12)N1CCN(c2ncc(C(F)(F)F)cc2Cl)CC1` yielded a residual activity ([1]; compound 10.0 µM) of 97%, a residual activity (BRSK2 (human); compound 10.0 µM) of 108% and a residual activity (CLK2 (human); compound 10.0 µM) of 95%. The residual activity (CSNK2A1 (human); compound 10.0 µM) was 79%, the residual activity (DYRK1A (human); compound 10.0 µM) was 72% and the residual activity (DYRK3 (human); compound 10.0 µM) was 91%. For the same molecule, the residual activity (EPHB3 (human); compound 10.0 µM) was 86%, the residual activity (IKBKB (human); compound 10.0 µM) was 89% and the residual activity (IRAK4 (human); compound 10.0 µM) was 66%. It also gave a residual activity (MAP2K6 (human); compound 10.0 µM) of 95%, a residual activity (MAP3K11 (human); compound 10.0 µM) of 89% and a residual activity (MAP3K7 TAB1 (human); compound 10.0 µM) of 98%. The residual activity (MAPK11 (human)) was 101%, the residual activity (MAPK12 (human); compound 10.0 µM) was 72% and the residual activity (MAPK14 (human); compound 10.0 µM) was 74%. The residual activity (MAPK3 (human); compound 10.0 µM) was 86%, the residual activity (MAPK8 (human); compound 10.0 µM) was 88% and the residual activity (MAPKAPK3 (human); compound 10.0 µM) was 90%. It also gave a residual activity (MAPKAPK5 (human); compound 10.0 µM) of 85%, a residual activity (MKNK2 (human); compound 10.0 µM) of 92% and a residual activity (NTRK1 (human); compound 10.0 µM) of 103%. For the same molecule, the residual activity (PAK4 (human)) was 83%, the residual activity (PIM1 (human); compound 10.0 µM) was 88% and the residual activity (PIM2 (human)) was 97%. It also gave a residual activity (PIM3 (human); compound 10.0 µM) of 116%, a residual activity (PLK1 (human); compound 10.0 µM) of 99% and a residual activity (ROCK2 (rat); compound 10.0 µM) of 95%. It also gave a residual activity (RPS6KA1 KD1 KD2 (human); compound 10.0 µM) of 90%, a residual activity (RPS6KA3 KD1 KD2 (human); compound 10.0 µM) of 86% and a residual activity ([2]; compound 10.0 µM) of 95%. It also gave a residual activity ([3]; compound 10.0 µM) of 70%, a residual activity (STK3 (human); compound 10.0 µM) of 82% and a residual activity (TBK1 (human); compound 10.0 µM) of 85%.
